Data from ChEMBL document CHEMBL3769402, “Discovery of novel N,N-3-phenyl-3-benzylaminopropionanilides as potent inhibitors of cholesteryl ester transfer protein in vivo” (Bioorg Med Chem, 2016).

How the values were obtained:
[1] = molecular target: T1, Cholesteryl ester transfer protein (Homo sapiens, UniProt P11597); test: Inhibition of full-length human recombinant CETP expressed in CHO cells by BODIPY-CE dye based fluorescence assay; assay type: cell-based
T1 sequence (P11597 whole entry): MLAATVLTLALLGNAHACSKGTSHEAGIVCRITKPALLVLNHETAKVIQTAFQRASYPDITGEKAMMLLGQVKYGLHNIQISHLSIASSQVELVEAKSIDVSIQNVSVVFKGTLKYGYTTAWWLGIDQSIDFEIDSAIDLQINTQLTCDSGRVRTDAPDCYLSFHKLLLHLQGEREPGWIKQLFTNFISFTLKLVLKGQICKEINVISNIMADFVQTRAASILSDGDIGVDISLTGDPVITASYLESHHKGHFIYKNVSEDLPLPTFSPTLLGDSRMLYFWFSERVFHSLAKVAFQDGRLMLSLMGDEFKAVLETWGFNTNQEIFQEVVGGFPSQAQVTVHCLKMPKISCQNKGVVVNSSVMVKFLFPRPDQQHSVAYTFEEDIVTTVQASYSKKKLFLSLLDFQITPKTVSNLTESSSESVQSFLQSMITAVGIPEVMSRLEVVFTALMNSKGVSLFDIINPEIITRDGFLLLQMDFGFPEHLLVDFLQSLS

CYP450 [2] = test: Drug metabolism in KM rat liver microsomes assessed as CYP450 mediated compound oxidation at 100 uM after 17.1 min by LC-MS/MS analysis in presence of NADPH; assay type: ADME; conditions: read-out: Drug metabolism
CYP450 [3] = test: Drug metabolism in KM rat liver microsomes assessed as CYP450 mediated compound reduction at 100 uM after 17.1 min by LC-MS/MS analysis in presence of NADPH; assay type: ADME; conditions: read-out: Drug metabolism
Syrian golden hamster [4] = test: Decrease in LDL-cholesterol level in high cholesterol/lipid diet fed po dosed golden syrian hamster administered daily for 4 weeks; assay type: functional, organism-based; conditions: Mesocricetus auratus
Syrian golden hamster [5] = test: Decrease in LDL-cholesterol level in high cholesterol/lipid diet fed golden syrian hamster at 20 mg/kg/day, po for 4 weeks; assay type: functional; conditions: Mesocricetus auratus, 672 h
Syrian golden hamster [6] = test: Decrease in LDL-cholesterol level in high cholesterol/lipid diet fed golden syrian hamster at 50 mg/kg/day, po for 4 weeks; assay type: functional; conditions: Mesocricetus auratus, 672 h
Syrian golden hamster [7] = test: Decrease in LDL-cholesterol level in high cholesterol/lipid diet fed golden syrian hamster at 100 mg/kg/day, po for 4 weeks; assay type: functional; conditions: Mesocricetus auratus, 672 h
Syrian golden hamster [8] = test: Increase in HDL-cholesterol level in high cholesterol/lipid diet fed po dosed golden syrian hamster administered daily for 4 weeks; assay type: functional, organism-based; conditions: Mesocricetus auratus
Syrian golden hamster [9] = test: Increase in HDL-cholesterol level in high cholesterol/lipid diet fed golden syrian hamster at 20 mg/kg/day, po for 4 weeks; assay type: functional, Mesocricetus auratus
Syrian golden hamster [10] = test: Increase in HDL-cholesterol level in high cholesterol/lipid diet fed golden syrian hamster at 50 mg/kg/day, po for 4 weeks; assay type: functional, Mesocricetus auratus
Syrian golden hamster [11] = test: Increase in HDL-cholesterol level in high cholesterol/lipid diet fed golden syrian hamster at 100 mg/kg/day, po for 4 weeks; assay type: functional, Mesocricetus auratus
Syrian golden hamster [12] = test: Toxicity in golden syrian hamster assessed as mortality at 20 to 100 mg/kg/day, po for 4 weeks; assay type: organism-based, Mesocricetus auratus; conditions: in vivo, 672 h

SMILES: CCOC(=O)c1ccc(NC(=O)CCN(c2cc(Cl)cc(-c3ccccc3)c2)S(=O)(=O)c2ccc(F)cc2)cc1
- IC50 [1]: 2.3 µM

SMILES: CCOC(=O)c1ccc(NC(=O)CCN(Cc2cc(C(F)(F)F)cc(C(F)(F)F)c2)c2ccc(Cl)c(Cl)c2)cc1
- IC50 [1]: 5.4 µM

SMILES: CCOC(=O)c1ccc(N2CCN(C(=O)CCN(Cc3ccc(F)cc3)c3ccc(Oc4ccccc4)cc3)CC2)cc1
- IC50 [1]: 6.7 µM

SMILES: CCOC(=O)c1ccc(N2CCN(C(=O)CCN(Cc3ccc(C(F)(F)F)cc3)c3ccc(Cl)c(Cl)c3)CC2)cc1
- IC50 [1]: 18.2 µM

SMILES: CCOC(=O)c1ccc(N2CCN(C(=O)CCN(Cc3ccc(F)cc3)c3ccc(Cl)c(Cl)c3)CC2)cc1
- IC50 [1]: 12.4 µM

SMILES: CCOC(=O)c1ccc(NC(=O)CCN(Cc2ccc(C(F)(F)F)cc2)c2ccc(Cl)c(Cl)c2)cc1
- IC50 [1]: 9.5 µM

SMILES: CCOC(=O)c1ccc(N2CCN(C(=O)CCN(Cc3ccc(F)cc3)c3cccc(Oc4ccccc4)c3)CC2)cc1
- IC50 [1]: 0.69 µM

SMILES: COc1ccc(N2CCN(C(=O)CCN(Cc3ccc(F)cc3)c3ccc(Cl)c(Cl)c3)CC2)cc1
- IC50 [1]: 4.9 µM

SMILES: COc1ccc(N2CCN(C(=O)CCN(Cc3ccc(F)cc3)c3ccc(Oc4ccccc4)cc3)CC2)cc1
- IC50 [1]: > 50 µM

SMILES: CCOC(=O)c1ccc(NC(=O)CCN(c2cccc(Oc3ccccc3)c2)S(=O)(=O)c2ccc(F)cc2)cc1
- IC50 [1]: 0.15 µM
- metabolised at 0.285 h, 100 µM (CYP450 [2]): 36%
- metabolised at 0.285 h, 100 µM (CYP450 [3]): 36%
- inhibition (Syrian golden hamster [4]): Dose-dependent effect
- inhibition in vivo at 20 mg/kg/day (Syrian golden hamster [5]): 19.3%
- inhibition in vivo at 50 mg/kg/day (Syrian golden hamster [6]): 36.2%
- inhibition in vivo at 100 mg/kg/day (Syrian golden hamster [7]): 45.8%
- Activity (Syrian golden hamster [8]): Dose-dependent effect
- Activity (Syrian golden hamster [9]): 16.2%
- Activity (Syrian golden hamster [10]): 34.7%
- Activity (Syrian golden hamster [11]): 48.2%
- Activity (Syrian golden hamster [12]): Non-toxic

SMILES: CCOC(=O)c1ccc(NC(=O)CCN(Cc2ccc(F)cc2)c2ccc(Cl)c(-c3ccccc3)c2)cc1
- IC50 [1]: 2.7 µM

SMILES: CCOC(=O)c1ccc(NC(=O)CCN(Cc2ccc(F)cc2)c2cc(Cl)cc(-c3ccccc3)c2)cc1
- IC50 [1]: 3.4 µM

SMILES: CCOC(=O)c1ccc(N2CCN(C(=O)CCN(Cc3ccc(F)cc3)c3ccc(Cl)c(-c4ccccc4)c3)CC2)cc1
- IC50 [1]: 2.9 µM

SMILES: O=C(CCN(Cc1ccc(F)cc1)c1ccc(Cl)c(Cl)c1)Nc1ccc(C(=O)O)cc1
- IC50 [1]: 9.1 µM

SMILES: CCOC(=O)c1ccc(NC(=O)CCN(c2ccc(Cl)c(-c3ccccc3)c2)S(=O)(=O)c2ccc(F)cc2)cc1
- IC50 [1]: 1.3 µM

SMILES: CCOC(=O)c1ccc(NC(=O)CCN(Cc2ccc(F)cc2)c2ccc(-c3ccccc3)cc2)cc1
- IC50 [1]: 16.7 µM

SMILES: CCOC(=O)c1ccc(NC(=O)CCN(Cc2ccc(F)cc2)c2ccc(Cl)c(Cl)c2)cc1
- IC50 [1]: 2 µM

SMILES: CCOC(=O)c1ccc(NC(=O)CCN(Cc2ccc(F)cc2)c2cccc(Oc3ccccc3)c2)cc1
- IC50 [1]: 0.24 µM
